Laboratory results: patent US6387907B1, “Use of serotonin agonists to alleviate disordered breathing episodes in a mammal” (The Trustees of the University of Pennsylvania, priority 1997, dated 2002)

Experiments:
Format in all cases: in vivo, English bulldog
English bulldogs [1] = test: Direct observation of behavior after serotonin antagonists; conditions: i.v. during quiet wakefulness; several dogs
Excerpt: The behavior of the dogs was observed directly throughout this study and for several hours following the last injection by one investigator seated adjacent the dog. The investigator documented both behavioral state and movement and helped the dog to maintain wakefulness throughout the study.

English bulldogs [2] = test: Upper airway dilator muscle (GH, SH) EMG activity during wakefulness after i.v. serotonin antagonist; conditions: mean±SE; for GH peak amplitude, mean: baseline 11.86±2.17; for SH amplitude: baseline 14.41±3.93
Excerpt: Following the baseline sleep study to document sleep-disordered breathing, each dog underwent a surgical procedure for the implantation of recording electrodes. For this procedure, dogs were premedicated with 5 to 10 micrograms per kilogram body weight atropine sulfate intramuscularly. In the cases of two bulldogs experiencing severe sleep-disordered breathing, intubation and general anesthesia were thought to pose a significant risk for postoperative respiratory failure. These two dogs were therefore sedated only using 20 to 40 micrograms per kilogram body weight oxymorphone administered intramuscularly. The six remaining dogs were anesthetized initially with sodium thiopental (15 to 30 milligrams per kilogram body weight) administered intravenously. The dogs were intubated and maintained under general anesthesia using 0.5 to 2.5% (v/v) inhalational halothane throughout the procedure.
Recording electrodes were implanted for the study of diaphragm and upper airway dilator muscle activity. Electrodes were fashioned from 0.7 millimeter multi-stranded Teflon-coated stainless steel wire. The insulation was stripped from 5 to 8 millimeters at the proximal tip. The proximal tip of each electrode was implanted transcutaneously into the relevant musculature using methods described by Basmajian et al. (1962, J. Appl. Physiol. 17:839).
(§1) Five diaphragm electromyographic (DIA EMG) electrodes were implanted in the costal musculature of the right hemidiaphragm 7 to 9 centimeters lateral to the xyphoid process. Three other electrodes were embedded into the right sternohyoid (SH) muscle and, three more were embedded into the right geniohyoid (GH) muscle. Both SH and GH muscles are readily palpable in the English bulldog.
Two ground electrodes were embedded transcutaneously contacting both the occipital skull and dorsal neck musculature. Distal tips of all electrodes were soldered onto a 25-pin Winchester-type connector. Electrodes and the connector were secured to each dog with elastic adhesive dressings over the torso and neck.
(§2) All studies were conducted using an unrestrained dog, either housed within a well-ventilated, electronically shielded, clear Plexiglass™ recording chamber or seated atop a table in the recording room. In either case, an investigator remained with the dog throughout the study to observe the dog's head and neck movements and to document the behavioral state of the dog. EMG signals were band-pass filtered at 50 to 2,000 Hertz. DIA EMG signals were passed through an analog EKG blanker (CWE EKG blanker; CWE, Ardmore, Pa.) and then through a third-order Paynter filter (CWE MA) having a 100-millisecond time constant to obtain a moving average of the DIA EMG. Signals of the SH and GH EMG were also passed through Paynter filters with the same time constants (100 ms) to obtain moving averages of these signals. Oxyhemoglobin saturation was measured continuously with a Biox IIA oximeter attached to the dog's pinna. Signals for the GH EMG, GH moving average (MA), SH EMG, SH MA, DIA EMG, DIA MA, and oxyhemoglobin saturations were recorded polygraphically (10 millimeters per second) using a chart recorder with high frequency response, i.e., as much as 10 kHz (Gould ES1000; Gould Instruments, Cleveland, Ohio). Signals were also recorded on analog tape using an eight-channel FM tape recorder (A. R. Vetter, Roseburg, Pa.).
The effects of serotonin antagonists on upper airway dilator muscle activity and breathing during wakefulness were assessed. Serotonin antagonists which were administered were methysergide maleate and ritanserin.
Ritanserin is a relatively selective serotonin antagonist at types 1C and 2 serotonin receptors (Devaud et al., 1992, J. Neurochem. 59:1459-1466). Ritanserin was selected for study on the basis that the IC and 2 subtypes of serotonin receptors appear to be involves in serotonin facilitation of hypoglossal motoneurons in vivo (Kugin et al., supra). […]

English bulldogs [3] = test: Diaphragm (DIA) EMG activity during wakefulness after i.v. serotonin antagonist
Procedure: as §1, §2
(§3) After obtaining baseline recordings of all variables for at least 5 minutes during quiet wakefulness and after obtaining recordings during the 5 minutes following administration of a saline control injection, 0.25 to 0.50 milligrams per kilogram body weight of one of the serotonin antagonists was administered to each dog through a peripheral intravenous line. All variables were continuously recorded. Injections were repeated every 6 minutes either until a total dose of 1 milligram per kilogram body weight had been administered or until the oxygen saturations fell below 85%. These limits were deemed to ensure the dogs' safety, based on an initial study using one dog. This dog, EBD-G was hypoxic at baseline and developed profound reductions in UAW muscle activity with desaturations to 75% after a total dose of 1.0 milligram per kilogram body weight of methysergide. The interval between repeated injections was selected to be 6 minutes to allow for 5 minute sampling periods for each dose. The duration of action of serotonin antagonists is known to be greater than 60 minutes (Bredberg et al., supra; Devaud et al., supra).
The effects of serotonin antagonists on diaphragm activity were similarly analyzed. Briefly, the measures of diaphragm activity were the peak amplitudes for all respiratory bursts in each condition. […] Acquisition of these measures has also been previously described (Hendricks et al., 1991, Am. Rev. Respir. Dis. 144:1112-1120). Mean values across all respiratory bursts of a 5 minute sample period were determined for each dog, and these values were used to perform repeated measures of ANOVA comparing baseline values with post-administration values.

English bulldogs [4] = test: Respiratory timing from DIA moving average signals
Excerpt: Respiratory timing variables were obtained from the DIA MA signals, using methods previously described to determine inspiratory time (T1), expiratory time (TE), total time of a respiratory burst (Ttot), and the duty cycle ratio (T1/Ttot) (Hendricks et al., 1987, J. Appl. Physiol. 63:1344-1350; Hendricks et al., 1991, Am Rev. Respir. Dis. 144:1112-1120).

English bulldogs [5] = test: Waking oxyhemoglobin saturation (SaO2) after i.v. serotonin antagonist; conditions: for mean SaO2: mean±SE
Procedure: as §2, §3
The effects of ritanserin and methysergide on oxyhemoglobin saturations were analyzed in a similar fashion; i.e., repeated measures of ANOVA for baseline and drug dose conditions. Oxyhemoglobin saturation was measured every 10 scans.

English bulldogs [6] = test: Cine CT imaging of the upper airway before and after ritanserin; conditions: 0.5 mg/kg i.v.
Procedure: The effect of administering a serotonin antagonist on upper airway dimensions during a respiratory cycle was determined by performing cinematic computed tomography (cine CT) on dogs before and after administration of the antagonists. Cine CT allows both high spatial and temporal resolution (Shepard et al., 1990, In: Proceedings of the First International Symposium on Sleep and Respiration, New York, 273-282; Schwab et al., 1993, Am. Rev. Respir. Dis. 148:1385-1400), and has been used to define dynamic changes in the upper airways of humans in relation to the phases of the respiratory cycle (Schwab et al., 1993, Am. Rev. Respir. Dis. 148:1385-1400; Galvin et al., 1989, Radiology 171:775-778; Schwab et al., 1993, J. Appl. Physiol. 74:1504-1514). An Imatron C-100 ultrafast scanner (Imatron Inc., South San Francisco, Calif.) was used for these studies.
Dogs were studied during wakefulness. All dogs were trained prior to the study to lie quietly on a table similar to the CT scanner table for periods as long as one hour. However, to maintain constant head and body position throughout the study, each dog wore a nylon vest secured to the table at the shoulder and hips. Lateral radiographs of the neck were performed initially so that the head and neck were positioned with a 110 to 130 degree angle between the hard palate and the upper trachea.
Once the angle was confirmed, the head was gently secured in place to the scanner table with elastic dressing tape. With the dog comfortably secured in place, a scout filming of the airways was performed with 40 consecutive 3-millimeter-thick coronal slices imaged from the region of the nasopharynx through the larynx. For each dog, these images were used to select four standard areas of study for all dogs. […] For each dog, the areas which were imaged included the posterior nasopharynx (at the level of pterygoid fossa in the dog), the retropalatal high area (at the midhyoid arch level), the retropalatal low area (at the level of the anterior hyoid bone), and the larynx.
Prior to imaging, each dog was connected as described above for monitoring geniohyoid, sternohyoid, and diaphragm muscle activity, respiratory inductive plethysmography, and oxyhemoglobin saturation. During quiet breathing, 20 consecutive images at 0.4-second intervals were obtained simultaneously at each of the four described levels. This program allowed for the description of the dynamic changes in airway dimensions over four to seven breaths at all four anatomic levels simultaneously. The image acquisition time for each radiograph was 50 milliseconds, and images were 3 millimeters thick. Imaging studies were rejected and repeated if the respiratory activity was interrupted at any time during imaging by swallowing, sighing (defined for this study as a diaphragm burst 200% greater in amplitude than the previous 10 bursts), licking, or panting, the latter being defined as a respiratory frequency of more than 60 diaphragmatic respiratory bursts per minute. Cine CT scanner impulses marking the timing for all images were transmitted to the polygraph with continuing signals of all objective measures, i.e., GH, SH, and DIA EMG activity, oxyhemoglobin saturation, and chest wall plethysmography. […]
This study quantified the effects of the serotonin antagonist, ritanserin, on the cross-sectional area of the upper airway and its dynamic changes during the respiratory cycle. […]

[7] = 0.50 mg/kg i.v., baseline ritanserin 14.41±3.93, methysergide 5.75±0.18
[8] = 0.50 mg/kg i.v., mean±SE, baseline ritanserin 17.63±2.79, methysergide 7.07±2.37
[9] = 0.50 mg/kg i.v., baseline ritanserin 92.1±0.6, methysergide 90.3±2.7

`CC[C@@H](CO)NC(=O)[C@@H]1C=C2c3cccc4c3c(cn4C)C[C@H]2N(C)C1` [methysergide] was tested, and the “behavior (head and neck movements, alertness)” value (English bulldogs [1]) was “increase in staring behaviors”, the SH peak amplitude (English bulldogs [2]; [7]) was 3.83±0.28 arbitrary units and the SH peak amplitude (English bulldogs [2]; 1.00 mg/kg i.v. cumulative, four dogs, baseline 5.75±0.18) was 2.77±0.38 arbitrary units. The “DIA peak amplitude as percentage of the baseline value” (“DIA peak amplitude as percentage” for short) (English bulldogs [3]; 0.50 mg/kg i.v.) was 67.7%, the “DIA peak amplitude, mean” value (English bulldogs [3]; [8]) was 4.74±0.25 arbitrary units and the “DIA peak amplitude as percentage” value (English bulldogs [3]; 1.0 mg/kg i.v. cumulative) was 39.6%. For the same molecule, the “DIA peak amplitude, mean” value (English bulldogs [3]; 1.0 mg/kg i.v. cumulative, mean±SE, three dogs, baseline 7.07±2.37) was 2.80±1.48 arbitrary units, the “TE reduced by” value (English bulldogs [4]; 0.50 mg/kg, three dogs) was 33.8% and the “TI reduced by” value (English bulldogs [4]; 0.50 mg/kg, three dogs) was 12.7%. For the same molecule, the “Ttot reduced by” value (English bulldogs [4]; 0.50 mg/kg, three dogs) was 23.9%, the “mean SaO2” value (English bulldogs [5]; [9]) was 86.6±2.0% and the “mean SaO2” value (English bulldogs [5]; 1.0 mg/kg i.v. cumulative, baseline 90.3±2.7) was 85.6±0.9%. The “oxygen desaturations in dog EBD-G (hypoxic at baseline)” value (English bulldogs [5]; total dose 1.0 mg/kg i.v., single dog, initial study) was 75%.
For `Cc1nc2sccn2c(=O)c1CCN1CCC(=C(c2ccc(F)cc2)c2ccc(F)cc2)CC1` [ritanserin], the “GH peak amplitude, mean” value (English bulldogs [2]; 0.25 mg/kg i.v., four dogs) was 6.42±1.12 arbitrary units, the SH amplitude (English bulldogs [2]; 0.25 mg/kg i.v.) was 10.90±2.99 arbitrary units and the “percent suppression of GH activity” value (English bulldogs [2]; 0.25 mg/kg i.v., quiet waking) was 40.0±6.5%. The “GH peak amplitude, mean” value (English bulldogs [2]; 0.50 mg/kg i.v. cumulative, four dogs) was 7.23±2.01 arbitrary units, the SH peak amplitude (English bulldogs [2]; [7]) was 9.08±1.32 arbitrary units and the “GH peak amplitude, mean” value (English bulldogs [2]; 0.75 mg/kg i.v. cumulative, four dogs) was 7.44±2.48 arbitrary units. For the same molecule, the SH amplitude (English bulldogs [2]; 0.75 mg/kg i.v. cumulative) was 7.43±0.55 arbitrary units, the “DIA peak amplitude as percentage” value (English bulldogs [3]; 0.25 mg/kg i.v.) was 85.76±3.30% and the “DIA peak amplitude, mean” value (English bulldogs [3]; 0.25 mg/kg i.v., mean±SE, six dogs, baseline 17.63±2.79) was 15.03±2.45 arbitrary units. For the same molecule, the “percent suppression of DIA activity” value (English bulldogs [3]; 0.25 mg/kg i.v., mean±SE, quiet waking, dogs with GH data) was 17.0±3.6%, the “DIA peak amplitude as percentage” value (English bulldogs [3]; 0.50 mg/kg i.v.) was 95.22±5.81% and the “DIA peak amplitude, mean” value (English bulldogs [3]; [8]) was 16.12±2.30 arbitrary units. For the same molecule, the “DIA peak amplitude as percentage” value (English bulldogs [3]; 0.75 mg/kg i.v. cumulative) was 87.33±5.18%, the “DIA peak amplitude, mean” value (English bulldogs [3]; 0.75 mg/kg i.v. cumulative, mean±SE, six dogs, baseline 17.63±2.79) was 14.98±2.06 arbitrary units and the “GH peak amplitude suppressed by” value (English bulldogs [6]; mean values for the two dogs) was 51.1±1.8%. For the same molecule, the “chest wall respiratory movement amplitude reduced by” value (English bulldogs [6]; two dogs) was 59.9%, the “upper airway parameters during expiration” value (English bulldogs [6]; two dogs) was “no significant changes” and the “mean SaO2 after administration” value (English bulldogs [6]; two dogs, before 92.8±1.8) was 86.2±4.7%. For the same molecule, the “airway CSA during both stages of inspiration” value (English bulldogs [6]; two dogs, individual ANOVAs p<0.01) was “significant reduction”, the “TI/Ttot (duty cycle ratio)” value (English bulldogs [4]; 0.25 mg/kg, mean±SE, six dogs, baseline 0.50±0.02, NS) was 0.52 ± 0.02 and the “TI (inspiratory time)” value (English bulldogs [4]; 0.25 mg/kg, mean±SE, six dogs, baseline 1.31±0.20, p 0.02) was 1.03 ± 0.17 s. The “TE (expiratory time)” value (English bulldogs [4]; 0.25 mg/kg, mean±SE, six dogs, baseline 1.32±0.20, p 0.04) was 1.00 ± 0.23 s, the “Ttot (total time of a respiratory burst)” value (English bulldogs [4]; 0.25 mg/kg, mean±SE, six dogs, baseline 2.60±0.30, p 0.03) was 2.02 ± 0.30 s and the “mean SaO2” value (English bulldogs [5]; 0.25 mg/kg i.v., baseline 92.1±0.6) was 88.5±0.8%. The “mean SaO2” value (English bulldogs [5]; [9]) was 87.6±1.2% and the “mean SaO2” value (English bulldogs [5]; 0.75 mg/kg i.v. cumulative, baseline 92.1±0.6) was 88.6±0.5%.
